Results published in patent US20050153406A1, “Process for producing solution containing ubiquinone-10” (priority 2002, published 2005).

Assay: Solubility of ubiquinone-10 in aqueous methanol solution
Assay type: physicochemical
Details: aqueous methanol solutions of varying concentration at 20, 30, 50 and 70° C. (FIG. 1)
Excerpt: Using a standard ubiquinone-10 (manufactured by Wako Pure Chemical Industries Co., Ltd.), the solubility of ubiquinone-10 is an aqueous methanol solution was examined in terms of the relation between the concentration of the solution and temperature.

With `COC1=C(OC)C(=O)C(C/C=C(\C)CC/C=C(\C)CC/C=C(\C)CC/C=C(\C)CC/C=C(\C)CC/C=C(\C)CC/C=C(\C)CC/C=C(\C)CC/C=C(\C)CCC=C(C)C)=C(C)C1=O` [ubiquinone-10] the “solubility of ubiquinone-10 in aqueous methanol solution” value was “increased in proportion to the methanol concentration and the temperature of the aqueous methanol solution”.
